A word on the melting point: it is the temperature, or range, at which the solid turns liquid. As for `Cc1ncc(Cn2c(CC3CCN(CCc4c(C)nc5sccn5c4=O)CC3)nc3ccccc32)o1`, the melting point came out at 174 °C. With `CSc1nc(O)c(-c2ccccc2F)c(O)n1` the figure was > 240 °C; with `CCCCCCCNC(=O)N(C)c1cccc(-c2ccc(CC(OCC)C(=O)O)cn2)c1` (configuration not stated), 140 to 141 °C.

In turn, `COc1cc(/C=C/C(=O)Oc2ccc(NC(C)=O)cc2)ccc1O` had a melting point of 185 to 195 °C. Compound `CCOC(=O)c1ccc2c(c1)S(=O)c1cc([N+](=O)[O-])ccc1-2` (configuration not stated) registered a melting point of 245 to 250 °C. `N#Cc1cnc2sc(-c3ccccc3)cc2c1-c1ccc2[nH]ccc2c1`: the melting point is > 245 °C. Turning to `CC1(C)CCC(C)(C)c2c(C=O)cc(-c3ccccc3)cc21`, the melting point was determined as 113 °C.

With `Cc1ccc(C)c(S(=O)(=O)n2ccc3c4c(N)nc(N)nc4ccc32)c1`, the melting point stood at 272 °C. The result for `OCCC1(c2ccccc2)CCNCC1` reads 120 °C.

Compound `CCn1cc(C(=O)OCC(=O)O)c(=O)c2cc3c(cc21)OCO3` had a melting point of 240 to 243 °C.

With `COc1nn(CC(C)=O)c(=O)s1`, the melting point is 66 to 67 °C.

Compound `CC(=O)N[C@@H](CS)C(=O)NCCSC(C)=O` displayed a melting point of 153 to 154 °C.

With `COc1ccc(OC)c2c1C(=O)C=C(SCCC(=O)O)C2=O`, the melting point fell in the range of 208 to 209 °C. With `O=C(c1ccc(Cl)cc1)c1cc(CBr)ccc1Cl` the figure was 81 to 83 °C.

Turning to `CC(=O)OC1(C)CCC2C(C)(C)CCCC2(C)C1CCC(C)(O)C1CO1` (configuration not stated), the melting point was 130 to 131 °C.

As for `CCCOc1ccc(C=CC(=O)N2CCN(C)CC2)cc1-c1nc2c(C)cccc2c(=O)[nH]1`, the melting point is 184 to 185 °C. With `Nn1c(-c2ccccc2Cl)nnc1-c1ccccc1Cl` the figure was 168 to 170 °C; with `Cc1oc2ccccc2c(=O)c1N`, 118 to 120 °C; with `COCc1nc2c(N)nc3cc(CCC(N)=O)ccc3c2n1CC(C)(C)O`, 228 to 230 °C.

The compound `COc1ccc(C(=O)NCc2ccccc2)c2c1oc1ccc(N)cc12` returned a melting point of 228 °C. The result for `CCCCCCc1ccc(CCCCC(COC(C)=O)(COC(C)=O)NC(C)=O)cc1` reads 61 to 64 °C. The result for `O=C(C=Cc1ccc(N2CCOCC2)cc1)c1ccc2c(c1)CCCC2` reads 138 to 140 °C; that for `O=C(NC1=NN(c2cccc(Cl)c2)CC1)C(F)(F)F`, 143 to 144 °C.

For the compound `CN(c1cccc2cc(-c3nccs3)[nH]c12)S(=O)(=O)c1cccs1`, the melting point was 201 to 202 °C. Compound `O=CN1CCSc2ccccc2C1` came in with a melting point of 84 to 87 °C.

`CC1CCc2nc3c(N)nc4ccccc4c3n2N1` (configuration not stated) came in with a melting point of 241 to 243 °C.

As to `FC(F)(F)c1cccc(-c2cc(C(F)(F)F)n3nccc3n2)c1`, the melting point is 96 °C. On to `Cc1cc(O)c(Oc2ccccc2C#N)cc1-c1ccsc1`, for which the melting point lay within 155 to 159 °C. The result for `NCCCCc1csc(-c2ccccn2)n1` reads 119 to 121 °C; that for `CC(C)(C)c1cc(OCC(=O)O)cc(C(C)(C)C)c1O`, 172 to 173 °C. The result for `FC(F)(F)c1cc(I)c2c(c1)ncn2-c1ccccc1` reads 118 to 120 °C; that for `CS(=O)(=O)c1ccc(C(CC2CCCC2)C(=O)O)cc1C#N` (configuration not stated), 180 to 181 °C. The result for `Oc1ccc(-c2cc3cc(O)cc(CC(F)(F)F)c3o2)cc1` reads 210 to 213 °C; that for `COc1cc2nc(-c3ccccc3)nc(N3CCN(C(=O)Nc4ccc([N+](=O)[O-])cc4)CC3)c2cc1OC`, 156 to 157 °C. `COC(=O)c1cc(F)c(O)nc1Nc1ccc(F)cc1F` had a melting point of 222 to 223 °C. With `CC(=O)NC(CO)CCc1ccc(Sc2cccc(OCc3ccccc3)c2)cc1Cl` (configuration not stated) the figure was 78 to 81 °C. The result for `Cc1noc(-c2ncn3c2cnc2ccccc23)n1` reads 269 to 270 °C.
